These are literature values, as cited in patent US20120231150A1, “Digestive Enzyme Inhibitor and Methods of Use” (TATE & LYLE INGREDIENTS AMERICAS, LLC, priority 2011, published 2012).

The test system of the data set is postprandial blood glucose. Conditions: use to control blood sugar levels.

In the case of `C[C@H]1O[C@H](O[C@H]2[C@H](O)[C@@H](O)[C@@H](O[C@H]3[C@H](O)[C@@H](O)C(O)O[C@@H]3CO)O[C@@H]2CO)[C@H](O)[C@@H](O)[C@@H]1N[C@H]1C=C(CO)[C@@H](O)[C@H](O)[C@H]1O` (stereo partly shown) [Acarbose], the side effects result was “undesirable side effects such as gas, bloating, diarrhea”.
